The source of these data is patent US20240034737A1, “Heterocyclic Derivatives as P2X7 Receptor Antagonists” (BREYE THERAPEUTICS APS, priority 2020, published 2024).

Broadly, the IC50 is the midpoint of a concentration-inhibition curve.

In data set [1] the target is P2X7 receptor (Homo sapiens (Human), UniProt Q99572). The data set can be described thus: Human P2X7 channel calcium-influx assay (Fluo-8 NW, FLIPR TETRA, Bz-ATP stimulation). It is filed as cell-based. Particulars: HEK-293 cells stably transfected with P2X7 receptor, Low Divalent Cation Assay Buffer, read-out: hP2X7 IC50. Summed up:
(§1)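 HEK-293 cells stably expressing human or mouse P2X7, preloaded with Fluo-8 NW dye for 1 h at RT. Compounds added, Bz-ATP-evoked Ca2+ influx followed as fluorescence kinetics over 5 min on FLIPR TETRA; A438079 served as reference antagonist.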

Data set [2] has as its system CYP4503A4. The experiment in a line: CYP4503A4 metabolic induction (mRNA expression) in human cryopreserved platable hepatocytes. It is filed as in vitro ADME. Particulars: 10 μM test compound, two days treatment, mRNA by QuantiGene Plex 2.0. On the procedure: In Vitro Evaluation of Test Compounds for CYP4503A4 Metabolic Induction Using Human Liver Hepatocytes.
CYP induction assessment was performed using human cryopreserved platable hepatocytes. Test compound was assessed at three or six different concentrations in duplicate.
A sandwich culture of platable cryopreserved hepatocytes was used with one day recovery period after plating. Assessment of cell morphology and confluency was performed using a phase-contrast microscope for representative wells.
The plated hepatocyte cell monolayers were treated with test compound, negative and positive controls for two days changing medium every 24 hours. On the fourth day, assessment of cell morphology and confluency was repeated to ensure cell monolayer integrity. Assessment of cell morphology and confluency was performed using a phase-contrast microscope for representative wells.
Cell monolayers were assessed for test compound cytotoxicity by an adenosine triphosphate (ATP) content assay in a separate plate.
Expression levels of mRNA for CYP1A2, CYP2B6, and CYP3A4 were evaluated by the QuantiGene® Plex 2.0 methodology.

Data set [3] addresses mP2X7 (Mus musculus (Mouse), UniProt Q9Z1M0). The experiment in a line: mP2X7 channel calcium-influx assay (Fluo-8 NW, FLIPR TETRA, Bz-ATP stimulation). Type of data set: cell-based. The method in brief:
as §1

P2X7 receptor, sequence (Q99572 whole entry): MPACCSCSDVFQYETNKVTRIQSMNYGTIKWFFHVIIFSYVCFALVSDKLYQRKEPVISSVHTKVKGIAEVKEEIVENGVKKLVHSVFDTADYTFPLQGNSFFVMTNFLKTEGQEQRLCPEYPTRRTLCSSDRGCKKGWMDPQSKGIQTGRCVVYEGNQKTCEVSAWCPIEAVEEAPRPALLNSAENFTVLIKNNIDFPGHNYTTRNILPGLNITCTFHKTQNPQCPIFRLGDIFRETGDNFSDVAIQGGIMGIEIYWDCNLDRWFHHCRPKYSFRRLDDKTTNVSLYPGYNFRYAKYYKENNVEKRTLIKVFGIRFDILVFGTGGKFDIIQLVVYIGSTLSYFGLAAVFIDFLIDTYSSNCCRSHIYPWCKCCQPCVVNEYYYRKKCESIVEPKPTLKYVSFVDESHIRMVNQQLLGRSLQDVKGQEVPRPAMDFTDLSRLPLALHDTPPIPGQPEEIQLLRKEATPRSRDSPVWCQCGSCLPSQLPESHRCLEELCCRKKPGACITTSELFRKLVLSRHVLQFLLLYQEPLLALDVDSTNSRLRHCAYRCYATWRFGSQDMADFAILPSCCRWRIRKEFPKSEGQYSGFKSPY
mP2X7, sequence (Q9Z1M0 whole entry): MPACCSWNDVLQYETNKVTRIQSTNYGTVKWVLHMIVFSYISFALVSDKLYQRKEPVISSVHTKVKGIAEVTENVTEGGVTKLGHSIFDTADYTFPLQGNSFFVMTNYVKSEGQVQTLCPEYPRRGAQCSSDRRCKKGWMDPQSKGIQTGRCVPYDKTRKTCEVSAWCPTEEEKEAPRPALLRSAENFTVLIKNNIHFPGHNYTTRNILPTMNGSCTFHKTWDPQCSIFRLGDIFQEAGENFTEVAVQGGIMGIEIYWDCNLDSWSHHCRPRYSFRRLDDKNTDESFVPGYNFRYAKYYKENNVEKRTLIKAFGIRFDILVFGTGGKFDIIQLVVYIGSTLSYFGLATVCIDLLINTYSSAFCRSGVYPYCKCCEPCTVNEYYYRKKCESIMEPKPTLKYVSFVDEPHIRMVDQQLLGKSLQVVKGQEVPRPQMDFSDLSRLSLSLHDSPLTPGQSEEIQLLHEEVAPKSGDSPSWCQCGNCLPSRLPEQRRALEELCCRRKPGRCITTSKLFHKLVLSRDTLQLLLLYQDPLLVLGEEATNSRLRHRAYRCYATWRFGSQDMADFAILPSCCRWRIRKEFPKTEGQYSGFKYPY

As for `O=C(NCC(c1scnc1C(F)F)N1CCC(Oc2cc(F)ccn2)CC1)c1c(F)cccc1Cl` (stereo not drawn) [Example 81, 2-chloro-N-{2-[4-(difluoromethyl)-1,3-thiazol-5-yl]-2-{4-[(4-fluoropyridin-2-yl)oxy]piperidin-1-yl}ethyl}-6-fluorobenzamide], the IC50 in data set [1] worked out at 20.1 nM; in data set [3], 38.1 nM. Besides, the “CYP4503A4 mRNA fold increase at 10 μM” value in data set [2] was 4.8 fold.

Turning to `N#Cc1cncc(OCC2CCN(C(CNC(=O)c3c(F)cccc3Cl)c3scnc3C(F)F)CC2)c1` (stereo not drawn) [Example 91, 2-Chloro-N-[2-(4-{[(5-cyanopyridin-3-yl)oxy]methyl}piperidin-1-yl)-2-[4-(difluoromethyl)-1,3-thiazol-5-yl]ethyl]-6-fluorobenzamide], the IC50 in data set [1] was 39.5 nM; in data set [3], 38.9 nM. The “CYP4503A4 mRNA fold increase at 10 μM” value in data set [2] is reported as 7.4 fold.

Take `Cc1cc(COC2CCN(C(CNC(=O)c3c(F)cccc3Cl)c3scnc3C(F)F)CC2)no1` (stereo not drawn) [Example 8, 2-chloro-N-{2-[4-(difluoromethyl)-1,3-thiazol-5-yl]-2-{4-[(5-methyl-1,2-oxazol-3-yl)methoxy]piperidin-1-yl}ethyl}-6-fluorobenzamide]: the concentration for half-maximal inhibition (IC50) in data set [1] is 47.8 nM; in data set [3] it was 170 nM. For the same compound, the “CYP4503A4 mRNA fold increase at 10 μM” value in data set [2] is listed as 2.2 fold.

For the compound `N#Cc1cc(OC2CCN(C(CNC(=O)c3c(F)cccc3Cl)c3scnc3C(F)F)CC2)ccn1` (stereo not drawn) [Example 127, 2-Chloro-N-(2-{4-[(2-cyanopyridin-4-yl)oxy]piperidin-1-yl}-2-[4-(difluoromethyl)-1,3-thiazol-5-yl]ethyl)-6-fluorobenzamide], the 50% inhibitory concentration (IC50) in data set [1] came to 49 nM; in data set [3] it was 61.7 nM. In data set [2], the “CYP4503A4 mRNA fold increase at 10 μM” value is reported as 6.3 fold.

Turning to `Cc1ccc(OCC2CCN(C(CNC(=O)c3c(F)cccc3Cl)c3scnc3C(F)F)CC2)nn1` (stereo not drawn) [Example 101, 2-Chloro-N-{2-[4-(difluoromethyl)-1,3-thiazol-5-yl]-2-(4-{[(6-methylpyridazin-3-yl)oxy]methyl}piperidin-1-yl)ethyl}-6-fluorobenzamide], the IC50 in data set [1] came out at 87.8 nM; in data set [3], 76.6 nM. The “CYP4503A4 mRNA fold increase at 10 μM” value in data set [2] is given as 3.9 fold.

Consider `O=C(NCC(c1scnc1C(F)F)N1CCC(COc2ccc(F)nn2)CC1)c1c(F)cccc1Cl` (stereo not drawn) [Example 104, 2-Chloro-N-{2-[4-(difluoromethyl)-1,3-thiazol-5-yl]-2-(4-{[(6-fluoropyridazin-3-yl)oxy]methyl}piperidin-1-yl)ethyl}-6-fluorobenzamide], for which the values for the IC50 in data set [1] and in data set [3] were 49.6 nM and 103 nM, respectively. For the same compound, in data set [2], the “CYP4503A4 mRNA fold increase at 10 μM” value worked out at 7.4 fold.

With `N#Cc1cc(OCC2CCN(C(CNC(=O)c3c(F)cccc3Cl)c3scnc3C(F)F)CC2)ccn1` (stereo not drawn) [Example 110, 2-Chloro-N-[2-(4-{[(2-cyanopyridin-4-yl)oxy]methyl}piperidin-1-yl)-2-[4-(difluoromethyl)-1,3-thiazol-5-yl]ethyl]-6-fluorobenzamide], the IC50 in data set [1] was found to be 40.6 nM; in data set [3], 25 nM. Also, the “CYP4503A4 mRNA fold increase at 10 μM” value in data set [2] is 6.5 fold.

Consider `O=C(NCC(c1scnc1C(F)F)N1CCC(COc2nccn3nccc23)CC1)c1c(F)cccc1Cl` (stereo not drawn) [Example 116, 2-Chloro-N-{2-[4-(difluoromethyl)-1,3-thiazol-5-yl]-2-[4-({pyrazolo[1,5-a]pyrazin-4-yloxy}methyl)piperidin-1-yl]ethyl}-6-fluorobenzamide], for which the IC50 in data set [1] is 28.5 nM; in data set [3], 11.3 nM. Further, the “CYP4503A4 mRNA fold increase at 10 μM” value in data set [2] was 9.8 fold.

As to `Cc1nsc(OCC2CCN(C(CNC(=O)c3c(F)cccc3Cl)c3scnc3C(F)F)CC2)n1` (stereo not drawn) [Example 85, 2-Chloro-N-{2-[4-(difluoromethyl)-1,3-thiazol-5-yl]-2-(4-{[(3-methyl-1,2,4-thiadiazol-5-yl)oxy]methyl}piperidin-1-yl)ethyl}-6-fluorobenzamide], the concentration for half-maximal inhibition (IC50) in data set [1] was 32.4 nM; in data set [3], 68.7 nM. The “CYP4503A4 mRNA fold increase at 10 μM” value in data set [2] was determined as 9.7 fold.

As to `Cc1nsc(OC2CCN(C(CNC(=O)c3c(F)cccc3Cl)c3scnc3C(F)F)CC2)n1` (stereo not drawn) [Example 11, 2-Chloro-N-{2-[4-(difluoromethyl)-1,3-thiazol-5-yl]-2-{4-[(3-methyl-1,2,4-thiadiazol-5-yl)oxy]piperidin-1-yl}ethyl}-6-fluorobenzamide], the IC50 in data set [1] is 50.5 nM; in data set [3] it was 183 nM. Moreover, the “CYP4503A4 mRNA fold increase at 10 μM” value in data set [2] was 7.9 fold.

As to `Cc1noc(C)c1COC1CCN(C(CNC(=O)c2c(F)cccc2Cl)c2scnc2C(F)F)CC1` (stereo not drawn) [Example 9, 2-chloro-N-{2-[4-(difluoromethyl)-1,3-thiazol-5-yl]-2-{4-[(dimethyl-1,2-oxazol-4-yl)methoxy]piperidin-1-yl}ethyl}-6-fluorobenzamide], the half-maximal inhibitory concentration (IC50) in data set [1] was determined as 64 nM; in data set [3], 53.9 nM. Moreover, in data set [2], the “CYP4503A4 mRNA fold increase at 10 μM” value came out at 2.6 fold.

`O=C(NCC(c1scnc1C(F)F)N1CCC(Oc2cncc(F)c2)CC1)c1c(F)cccc1Cl` (stereo not drawn) [Example 5, 2-chloro-N-{2-[4-(difluoromethyl)-1,3-thiazol-5-yl]-2-{4-[(5-fluoropyridin-3-yl)oxy]piperidin-1-yl}ethyl}-6-fluorobenzamide]: the IC50 in data set [1] is 23.7 nM; in data set [3], 26.9 nM. Besides, the “CYP4503A4 mRNA fold increase at 10 μM” value in data set [2] came out at 5.0 fold.
